Values joined by “and” are separate entries in the source; they are usually repeats but may differ in a detail not shown here. Identical values can stand only once. Like-named read-outs stand apart in the source and are kept apart here.
What was measured:
[1] = Presto Blue viability test on MRC-5 lung fibroblasts; format: cell-based, human; conditions: human
Procedure: (§1) Human MRC-5 lung fibroblast cells were used (ICLC-IRCCS San Martino, Genoa, Italy); cells were expanded in DMEM/F12 50%/50% (Dulbecco’s Modified Eagle Medium/Ham’s F12 50/50 Mix; Corning, Pisa, Italy; cat. n. 10-090-CV; ThermoFisher Scientific, Segrate (MI), Italy, supplemented with 10% fetal bovine serum (GIBCO-Invitrogen, GIBCO-ThermoFisher Life Science, Segrate, Italy, catalog number (cat. n.) 10270-098) and 2 mM glutamine (Euro-Clone; Pero, MI, Italy; cat. n. EC B3000D) at 37 °C under 5% CO2 aeration. After expansion, cells were washed three times with sterile phosphate buffered solution (PBS; VWR, Milano, Italy, cat. n. 392-0442), detached with 0.25% Trypsin solution (Corning; cat-25-050-CI), collected in complete medium, and centrifuged at 400× g for 12 min. The supernatant was discarded, and cells were suspended in PBS, counted, and centrifuged again as mentioned above. Cells were then resuspended in complete medium, seeded into 24-well plates (20,000 cells/well) and allowed to adhere to the plate for the next 24 h. Subsequently, non-adherent cells and the plating medium were discarded, and fresh standard medium or treatment medium were added. Treatment media contained BPPB at different concentrations (0.5, 1.0, 5.0, 25.0, 50.0, 75.0 and 100.0 μM); triplicate wells for each concentration were tested simultaneously, as well as controls. The medium was changed every day. Cells were photographed and assayed for viability prior to treatment (time 0; T0) and after 24, 48, and 72 h subsequently (T24, T48 and T72). Bright field images of each well/treatment were acquired using a Nikon Digital Sigh DS-5Mc camera (Nikon Europe B.V., Amstelveen, The Netherlands) mounted on an inverted Olympus CKX-41 microscope (Evident Europe GmbH, Segrate (Milan), Italy) (4×, 10× and 20× enlargements).
(§2) Briefly, at the indicated time points, cells were washed twice with PBS and incubated in the dark a 37 °C for 4 h with fresh complete medium supplemented with 10% Presto Blue ^TM. Aliquots of the Presto Blue ^TM-containing medium were incubated in the same conditions, to be used as reaction blanks. Supernatants and blanks were then collected and analyzed using a Spectra MR multi-plate reader spectrophotometer (Dynex Technologies; Chantilly, VA, USA) at 570 and 600 nm. The results were calculated as the average of treatment replicas (triplicates) ± S.D., normalizing each 570 nm reading to its corresponding value at 600 nm, subtracting the average blank value, and normalizing the results at each time point to the initial reading at T0.

[2] = system: Human MRC-5 lung fibroblast cells; assay: as above; format: cell-based; conditions: for IC50: concentration range 0.5–5 µM
Procedure: as §1, §2

[3] = system: red blood cells (RBCs); assay: In vitro hemolytic toxicity on red blood cells; format: cell-based, human; conditions: for Hemolysis (hemolytic ratio): 60 min; for IC50: 60 min at 37 °C, 0.1–50 µM, blood of four healthy donors, read-out: IC50 RBCs (concentration needed to cause 50% hemolysis)
Procedure: (§3) The hemolytic ratio was evaluated, as recently reported with slight changes, in EDTA-blood samples from four healthy donors from the San Martino Hospital Transfusion Centre. Specifically, red blood cells (RBCs) were isolated by diluting 0.2 mL of blood with 0.4 mL of phosphate-buffered saline (PBS) and centrifuging it for 5 min at 10,000× g. The pellet, consisting of RBCs, was washed 5 times with 1.0 mL PBS and finally resuspended with 2.0 mL PBS. The assay was carried out on 0.1 mL of resuspended RBCs added to 0.1 mL of H2O (positive control), 0.1 mL of PBS (negative control), or 0.1 mL of the different concentrations (0.1–50 µM) of the compound to be tested (BPPB). The samples were incubated for 60 min at 37 °C, and at the end, they were centrifuged for 5 min at 10,000× g. Finally, 0.1 mL of supernatant was transferred to a transparent 96-well plate and measured by a spectrophotometer (Dynex Technologies; Chantilly, VA, U.S.A.) at 595 nm. The hemolytic ratio was calculated using the following formula:Hemolytic ratio (%) = (OD TEST − OD NEGATIVE CONTROL)/(OD POSITIVE CONTROL − OD NEGATIVE CONTROL) × 100
(§4) The hemolytic ratio percentage (%) caused by BPPB was assessed as recently reported with slight changes. In particular, EDTA-blood samples from four healthy donors were exposed to increasing concentrations of BPPB (0.1–50 µM).

[4] = In vitro hemolytic toxicity on red blood cells; format: cell-based, human; conditions: human
Procedure: as §3, §4

## c1ccc([P+](CCCCCCCCCCCC[P+](c2ccccc2)(c2ccccc2)c2ccccc2)(c2ccccc2)c2ccccc2)cc1 [BPPB, 1,1-(1,12-dodecanediyl)bis [1,1, 1]-triphenylphosphonium di-bromide]
[1]; 24 h, read-out: Selectivity index (SI) = IC50 MRC-5 / IC50 HTLA-ER
  selectivity ratio at 24 h: 2.5
[1]; 48 h, read-out: Selectivity index (SI) = IC50 MRC-5 / IC50 HTLA-ER
  selectivity ratio at 48 h: ~1
[1]; 72 h, read-out: Selectivity index (SI) = IC50 MRC-5 / IC50 HTLA-ER
  selectivity ratio at 72 h: ~1
[1]; MRC-5 lung fibroblast cells, 1.0 µM, 48 h, read-out: Percentage of viable MRC-5 cells with respect to seeded cells at T0
  viability at 48 h, 1 µM: 26.8%
[1]; MRC-5 lung fibroblast cells, 1.0 µM, 72 h, read-out: Percentage of viable MRC-5 cells with respect to seeded cells at T0
  viability at 72 h, 1 µM: 30.6%
[1]; MRC-5 lung fibroblast cells, 5 µM, 48–72 h, read-out: Cell viability MRC-5
  viability at 5 µM: 3%
[1]; MRC-5 lung fibroblast cells, 5 µM, 24 h, read-out: Cell viability MRC-5
  viability at 24 h, 5 µM: 38%
[1]; MRC-5 lung fibroblast cells, 5.0 µM, 48 h, read-out: Percentage of viable MRC-5 cells with respect to seeded cells at T0
  viability at 48 h, 5 µM: 2.78%
[1]; MRC-5 lung fibroblast cells, 5.0 µM, 72 h, read-out: Percentage of viable MRC-5 cells with respect to seeded cells at T0
  viability at 72 h, 5 µM: 3.04%
[2]; 24 h
  Selectivity index (SI) = IC50 MRC-5 / IC50 HTLA-230: 11.68
  Selectivity index (SI) = IC50 MRC-5 / IC50 HTLA-ER: 2.49
[2]; 24 h exposure
  IC50: 2770 nM
[2]; 48 h
  Selectivity index (SI) = IC50 MRC-5 / IC50 HTLA-230: 3.77
  Selectivity index (SI) = IC50 MRC-5 / IC50 HTLA-ER: 0.80
[2]; 72 h
  Selectivity index (SI) = IC50 MRC-5 / IC50 HTLA-230: 4.01 and 4.07
  Selectivity index (SI) = IC50 MRC-5 / IC50 HTLA-ER: 1.11
[2]; BPPB SI vs MRC-5, 24 h (2.49) against ETO SI (0.32)
  Fold higher SI for HTLA-ER than that of ETO: 7.8 fold
[2]; Homo sapiens, MRC5, 24 h, 24 h exposure
  IC50: 2800 nM
[2]; Homo sapiens, MRC5, 48 h, 48 h exposure
  IC50: 740 ± 572 nM
[2]; Homo sapiens, MRC5, 72 h, 72 h exposure
  IC50: 928 ± 896 nM
[2]; any concentration equal to or higher than 25 µM, within 24 h
  Effect on plated MRC-5 cells: detachment and death of all plated cells
[3]; 10 µM
  Hemolysis (hemolytic ratio): 25.1%
[3]; 20 µM
  Hemolysis (hemolytic ratio): 50.8%
[3]
  IC50: 14900 nM
[3]; Homo sapiens, Erythrocyte, 1 h
  IC50: 14900 nM
[3]; NB cells 24 h exposure
  Selectivity index (SI) = IC50 RBCs / IC50 HTLA-230: > 74
  Selectivity index (SI) = IC50 RBCs / IC50 HTLA-ER: 13.56
[4]; NB cells 24 h exposure, read-out: Selectivity index (SI) = IC50 RBCs / IC50 HTLA-ER
  selectivity ratio at 60 min: > 10
[4]; isolated red blood cells, concentration at which both NB cell populations were fully exterminated, read-out: RBC viability
  viability at 60 min: 98.4%
